According to patent US20140005163A1 (NOVARTIS AG, priority 2010, published 2014):
pIC50: −log10 of the molar value. Converted amounts (≈) assume the structure as drawn.

How the values were obtained:
[1] = biological target: T1, PI3K beta (Homo sapiens, UniProt P42338); assay: PI3K beta kinase assay (Kinase-Glo luminescence); format: biochemical
T1 construct: for the full-length p110-b subunit are generated and fused by overlapping PCR; p85(iSH2) fusion partner (see partner chain) (N); His tag (C); made in house; host or cells: baculovirus; Tn5 (Trichoplusia ni) or TiniPro insect cells
Protocol: (§1) In a more preferred assay, the kinase reaction is performed in a final volume of 10 μL per well of a low volume non binding CORNING, 384 well black plate (Cat. No. #3676). The final concentrations of ATP and phosphatidyl inositol (PI) in the assay are 1 μM and 10 μg/mL respectively. The reaction is started by the addition of ATP.
(§2) The components of the assay are added per well as follows:
(§3) […] in 90% DMSO per well, in columns 1-20, 8 concentrations (1/3 and 1/3.33 serial dilution step) in single. • Low control: […] of 90% DMSO in half the wells of columns 23-24 (0.45% in final). • High control: […] of reference compound (e.g. compound of Example 7 in WO 2006/122806) in the other half of columns 23-24 (2.5 μM in final). • Standard: […] of reference compound as just mentioned diluted as the test compounds in columns 21-22 • 20 mL ‘buffer’ are prepared per assay: • 200 μL of 1M TRIS HCl pH7.5 (10 mM in final) • 60 μL of 1M MgCl2 (3 mM in final) • 500 μL of 2M NaCl (50 mM in final) • 100 μL of 10% CHAPS (0.05% in final) • 200 μL of 100 mM DTT (1 mM in final) • 18.94 mL of nanopure water • 10 mL ‘PI’ are prepared per assay: • 200 μL of 1 mg/ml L-alpha-Phosphatidylinositol (Liver Bovine, Avanti Polar Lipids Cat. No. 840042C MW=909.12) prepared in 3% OctylGlucoside (10 μg/ml in final) • 9.8 mL of ‘buffer’ • 10 mL ‘ATP’ are prepared per assay: • 6.7 μL of 3 mM stock of ATP giving a final concentration of 1 μM per well • 10 mL of ‘buffer’ • 2.5 mL of each PI3K construct are prepared per assay in ‘PI’ with the following final concentration: • 10 nM PI3K alfa EMV B1075 • 25 nM beta EMV BV949 • 10 nM delta EMV BV1060 • 150 nM gamma EMV BV950 • 5 μL of ‘PI/PI3K’ are added per well. • 5 μl ‘ATP’ are added per well to start the reaction. • The plates are then incubated at room temperature for 60 minutes (alfa, beta, delta) or 120 minutes (gamma). • The reaction is terminated by the addition of 10 μL Kinase-Glo (Promega Cat. No. #6714). • The assay plates are read after 10 minutes in Synergy 2 reader (BioTek, Vermont USA) with an integration time of 100 milliseconds and sensitivity set to 191. • Output: The High control is around 60'000 counts and the Low control is 30'000 or lower • This luminescence assay gives a useful Z′ ratio between 0.4 and 0.7
PI3Kβ BV-949 p85(iSH2)-Gly Linker-p110b(Full-Length)-C-Term his Tag
(§4) IC50 is determined by a four parameter curve fitting routine that comes along with “excel fit”. […] Alternatively, IC50 values are calculated using idbsXLfit model 204, which is a 4 parameter logistic model.

[2] = biological target: T2, PI3K alpha (Homo sapiens, UniProt P42336); assay: PI3K alpha kinase assay (Kinase-Glo luminescence); format: biochemical
T2 construct: p85(iSH2) fusion partner (see partner chain) (N); His tag (C); made in house; host or cells: baculovirus; Tn5 (Trichoplusia ni) or TiniPro insect cells
Procedure, shortened: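 Compounds are titrated at 8 concentrations and mixed with PI3Kα protein (EMV B1075, 10 nM) in phosphatidylinositol (10 μg/mL). ATP at 1 μM starts the 60-minute room-temperature reaction, which is stopped with Kinase-Glo before luminescence reading. Four-parameter curve fitting gives IC50.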

[3] = test system: PKB Ser473 phosphorylation in Rat1-myr-HA-p110 delta cells; assay: Reverse protein array assay, PKB Ser473 phosphorylation in Rat1-myr-p110 delta cells; format: cell-based; conditions: read-out: p-PKB IC50
Procedure, shortened: (§5)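 Compound exposure lasted 30 min in Rat1 cells bearing membrane-targeted HA-p110 isoforms, using 8 serial concentrations. Arrayed lysates, each spotted at four dilutions, gave relative fluorescence signals for phospho-Ser473 PKB.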

[4] = biological target: T3, PI3K delta (Homo sapiens, UniProt O00329); assay: PI3K delta kinase assay (Kinase-Glo luminescence); format: biochemical
T3 construct: for the full-length p110-d subunit are generated and fused by overlapping PCR; p85(iSH2) fusion partner (see partner chain) (N); His tag (C); made in house; host or cells: baculovirus; Tn5 (Trichoplusia ni) or TiniPro insect cells
Procedure, shortened: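 ATP 1 μM, PI 10 μg/mL, PI3Kδ construct BV1060 10 nM (final); 10 mM Tris pH 7.5, 3 mM MgCl2, 50 mM NaCl, 0.05% CHAPS, 1 mM DTT; 60 min RT; Kinase-Glo stop, luminescence.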

[5] = test system: PKB Ser473 phosphorylation in Rat1-myr-HA-p110 beta cells; assay: Reverse protein array assay, PKB Ser473 phosphorylation in Rat1-myr-p110 beta cells; format: cell-based; conditions: 0.5 h, pAkt Ser473, 30 minutes incubation, read-out: p-PKB IC50
Procedure, shortened: as §5

[6] = test system: PKB Ser473 phosphorylation in Rat1-myr-HA-p110 alpha cells; assay: Reverse protein array assay, PKB Ser473 phosphorylation in Rat1-myr-p110 alpha cells; format: cell-based; conditions: 0.5 h, pAkt Ser473, 30 minutes compound incubation, read-out: p-PKB IC50
Procedure, shortened: as §5

[7] = Solubility at pH 6.8; format: physicochemical; conditions: pH 6.8, aqueous buffer, thermodynamic from solid; read-out: solubility
Source text: The physicochemical properties of relevance for the absorption of the compound, such as the solubility and the membrane permeability, especially at a pH close to neutral pH can be measured using the procedure as described by L. ZHOU et al. in JOURNAL OF PHARMACEUTICAL SCIENCES, VOL. 96, NO. 11, p. 3052-3071 (2007) for the solubility at pH 6.8 and the procedure as described by F. Wohnsland and B. Faller in Journal of Medicinal Chemistry Vol 44, p. 923-930 (2001) for the Parallel Artificial Membrane Permeability Assay (PAMPA) at pH 6.8.

[8] = biological target: T4, PI3K gamma (Homo sapiens, UniProt P48736); assay: PI3K gamma kinase assay (Kinase-Glo luminescence); format: biochemical
T4 construct: His tag (C); made in house; host or cells: baculovirus (pVL1393); Tn5 or TiniPro insect cells; construct from Roger Williams lab, MRC LMB
Protocol: as §1, §2, §3, §4

[9] = biological target: T5, mTOR (Homo sapiens, UniProt P42345); assay: Biochemical assay for m-TOR by TR-FRET; conditions: 8 μM ATP, 400 nM GFP-4EBP1, 0.5 nM mTOR
T5 construct: purchased Invitrogen Corporation (Carlsbad/CA, USA) PV4753
Procedure, shortened: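 Enzyme 0.5 nM, GFP-4EBP1 400 nM, ATP 8 μM (all final); 50 mM HEPES pH 7.5, 10 mM MnCl2, 1 mM DTT; rt. Detection: Tb-α-p4EBP1 [pT46] 0.5 nM in EDTA, TR-FRET, 15 min. Reference compound on every plate, 16-point duplicate dilutions.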

T3 sequence (O00329 with tags, fused parts or gaps limits assumed): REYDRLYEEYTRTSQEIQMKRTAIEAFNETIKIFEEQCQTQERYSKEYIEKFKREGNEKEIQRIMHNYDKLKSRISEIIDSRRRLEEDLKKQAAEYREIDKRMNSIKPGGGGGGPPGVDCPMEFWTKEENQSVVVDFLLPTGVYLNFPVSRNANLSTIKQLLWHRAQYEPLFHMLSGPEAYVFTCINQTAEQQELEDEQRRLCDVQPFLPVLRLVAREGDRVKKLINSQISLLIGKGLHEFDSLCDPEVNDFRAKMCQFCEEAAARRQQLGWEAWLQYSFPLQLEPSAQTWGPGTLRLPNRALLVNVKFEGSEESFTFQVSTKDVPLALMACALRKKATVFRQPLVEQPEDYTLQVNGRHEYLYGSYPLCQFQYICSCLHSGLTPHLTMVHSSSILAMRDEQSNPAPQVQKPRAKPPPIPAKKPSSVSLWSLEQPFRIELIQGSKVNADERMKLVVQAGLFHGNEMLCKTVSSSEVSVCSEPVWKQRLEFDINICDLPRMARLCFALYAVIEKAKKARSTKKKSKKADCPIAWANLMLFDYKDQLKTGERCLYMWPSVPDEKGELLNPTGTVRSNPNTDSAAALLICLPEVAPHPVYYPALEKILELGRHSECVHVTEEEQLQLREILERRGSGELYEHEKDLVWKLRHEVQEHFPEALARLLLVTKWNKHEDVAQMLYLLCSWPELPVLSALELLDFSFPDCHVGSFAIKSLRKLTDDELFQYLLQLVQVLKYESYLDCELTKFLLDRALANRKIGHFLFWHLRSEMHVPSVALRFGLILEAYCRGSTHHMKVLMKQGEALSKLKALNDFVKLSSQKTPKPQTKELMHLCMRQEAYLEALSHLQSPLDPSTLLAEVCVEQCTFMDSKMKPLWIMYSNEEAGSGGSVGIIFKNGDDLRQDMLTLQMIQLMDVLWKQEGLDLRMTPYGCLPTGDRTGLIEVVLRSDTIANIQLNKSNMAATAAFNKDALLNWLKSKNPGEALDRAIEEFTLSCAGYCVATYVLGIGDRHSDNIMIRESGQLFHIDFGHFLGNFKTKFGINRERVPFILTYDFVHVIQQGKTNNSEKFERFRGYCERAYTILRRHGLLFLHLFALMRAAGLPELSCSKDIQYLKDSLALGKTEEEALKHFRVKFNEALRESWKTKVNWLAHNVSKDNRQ
T2 sequence (P42336 with tags, fused parts or gaps limits assumed): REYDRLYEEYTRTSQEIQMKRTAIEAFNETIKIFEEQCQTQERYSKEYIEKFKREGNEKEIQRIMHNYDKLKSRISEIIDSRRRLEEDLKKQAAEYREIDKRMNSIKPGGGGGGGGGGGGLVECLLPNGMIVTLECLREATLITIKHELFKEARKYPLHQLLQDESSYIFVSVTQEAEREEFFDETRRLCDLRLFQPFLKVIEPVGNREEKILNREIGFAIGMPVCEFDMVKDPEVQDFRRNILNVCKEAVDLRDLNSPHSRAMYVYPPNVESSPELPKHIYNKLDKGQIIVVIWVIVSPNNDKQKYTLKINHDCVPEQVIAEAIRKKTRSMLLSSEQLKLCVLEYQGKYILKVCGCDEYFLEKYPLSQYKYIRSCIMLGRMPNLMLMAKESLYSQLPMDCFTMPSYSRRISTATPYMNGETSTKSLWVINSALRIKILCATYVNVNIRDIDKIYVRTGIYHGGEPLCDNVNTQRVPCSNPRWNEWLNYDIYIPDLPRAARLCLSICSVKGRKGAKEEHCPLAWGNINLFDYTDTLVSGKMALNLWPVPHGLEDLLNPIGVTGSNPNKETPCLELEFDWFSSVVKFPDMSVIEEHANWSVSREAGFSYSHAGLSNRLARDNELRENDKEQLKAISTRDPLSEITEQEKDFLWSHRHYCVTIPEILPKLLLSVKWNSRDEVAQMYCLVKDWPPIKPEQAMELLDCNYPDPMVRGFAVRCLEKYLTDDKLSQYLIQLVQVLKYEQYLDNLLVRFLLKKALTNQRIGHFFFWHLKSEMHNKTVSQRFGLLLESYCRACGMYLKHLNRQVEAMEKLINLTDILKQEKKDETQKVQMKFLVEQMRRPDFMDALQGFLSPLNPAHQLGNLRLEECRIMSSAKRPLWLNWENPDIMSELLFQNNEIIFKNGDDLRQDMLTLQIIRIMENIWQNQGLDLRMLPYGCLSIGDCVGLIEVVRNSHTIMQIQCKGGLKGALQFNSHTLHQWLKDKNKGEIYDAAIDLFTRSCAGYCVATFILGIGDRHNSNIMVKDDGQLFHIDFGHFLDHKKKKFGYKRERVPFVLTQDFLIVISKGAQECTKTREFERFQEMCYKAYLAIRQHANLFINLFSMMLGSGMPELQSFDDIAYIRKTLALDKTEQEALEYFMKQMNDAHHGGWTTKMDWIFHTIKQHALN
T1 sequence (P42338 with tags, fused parts or gaps limits assumed): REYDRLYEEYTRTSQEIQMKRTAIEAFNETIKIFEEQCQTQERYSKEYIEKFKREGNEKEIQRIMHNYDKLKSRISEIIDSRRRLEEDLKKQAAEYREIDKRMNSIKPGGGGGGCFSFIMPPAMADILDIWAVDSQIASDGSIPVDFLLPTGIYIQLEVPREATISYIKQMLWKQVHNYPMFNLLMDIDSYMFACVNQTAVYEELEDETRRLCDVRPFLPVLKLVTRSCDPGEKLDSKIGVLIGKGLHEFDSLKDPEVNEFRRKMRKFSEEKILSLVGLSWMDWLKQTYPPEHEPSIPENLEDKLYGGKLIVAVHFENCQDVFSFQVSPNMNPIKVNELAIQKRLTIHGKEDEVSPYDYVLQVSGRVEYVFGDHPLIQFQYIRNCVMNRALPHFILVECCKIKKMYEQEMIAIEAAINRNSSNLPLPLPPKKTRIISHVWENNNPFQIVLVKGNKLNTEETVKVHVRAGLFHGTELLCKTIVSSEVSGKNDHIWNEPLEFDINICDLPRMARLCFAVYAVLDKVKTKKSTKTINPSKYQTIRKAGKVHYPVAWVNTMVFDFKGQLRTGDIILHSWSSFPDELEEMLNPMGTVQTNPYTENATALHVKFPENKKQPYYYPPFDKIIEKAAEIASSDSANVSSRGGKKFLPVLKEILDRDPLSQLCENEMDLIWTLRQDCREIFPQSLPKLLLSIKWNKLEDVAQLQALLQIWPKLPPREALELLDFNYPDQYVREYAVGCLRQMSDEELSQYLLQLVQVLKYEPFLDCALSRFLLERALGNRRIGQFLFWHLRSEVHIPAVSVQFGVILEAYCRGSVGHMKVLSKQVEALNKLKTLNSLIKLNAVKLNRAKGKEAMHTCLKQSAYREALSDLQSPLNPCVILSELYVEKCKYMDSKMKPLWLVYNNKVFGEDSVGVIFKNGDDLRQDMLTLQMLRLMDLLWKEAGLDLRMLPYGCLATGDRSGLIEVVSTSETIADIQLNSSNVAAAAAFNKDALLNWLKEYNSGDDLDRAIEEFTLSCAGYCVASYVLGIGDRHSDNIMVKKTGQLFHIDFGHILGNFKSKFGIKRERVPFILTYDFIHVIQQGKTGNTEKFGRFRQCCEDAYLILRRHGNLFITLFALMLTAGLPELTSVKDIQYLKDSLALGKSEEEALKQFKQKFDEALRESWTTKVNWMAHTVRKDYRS
T4 sequence (P48736 144-1102 limits assumed): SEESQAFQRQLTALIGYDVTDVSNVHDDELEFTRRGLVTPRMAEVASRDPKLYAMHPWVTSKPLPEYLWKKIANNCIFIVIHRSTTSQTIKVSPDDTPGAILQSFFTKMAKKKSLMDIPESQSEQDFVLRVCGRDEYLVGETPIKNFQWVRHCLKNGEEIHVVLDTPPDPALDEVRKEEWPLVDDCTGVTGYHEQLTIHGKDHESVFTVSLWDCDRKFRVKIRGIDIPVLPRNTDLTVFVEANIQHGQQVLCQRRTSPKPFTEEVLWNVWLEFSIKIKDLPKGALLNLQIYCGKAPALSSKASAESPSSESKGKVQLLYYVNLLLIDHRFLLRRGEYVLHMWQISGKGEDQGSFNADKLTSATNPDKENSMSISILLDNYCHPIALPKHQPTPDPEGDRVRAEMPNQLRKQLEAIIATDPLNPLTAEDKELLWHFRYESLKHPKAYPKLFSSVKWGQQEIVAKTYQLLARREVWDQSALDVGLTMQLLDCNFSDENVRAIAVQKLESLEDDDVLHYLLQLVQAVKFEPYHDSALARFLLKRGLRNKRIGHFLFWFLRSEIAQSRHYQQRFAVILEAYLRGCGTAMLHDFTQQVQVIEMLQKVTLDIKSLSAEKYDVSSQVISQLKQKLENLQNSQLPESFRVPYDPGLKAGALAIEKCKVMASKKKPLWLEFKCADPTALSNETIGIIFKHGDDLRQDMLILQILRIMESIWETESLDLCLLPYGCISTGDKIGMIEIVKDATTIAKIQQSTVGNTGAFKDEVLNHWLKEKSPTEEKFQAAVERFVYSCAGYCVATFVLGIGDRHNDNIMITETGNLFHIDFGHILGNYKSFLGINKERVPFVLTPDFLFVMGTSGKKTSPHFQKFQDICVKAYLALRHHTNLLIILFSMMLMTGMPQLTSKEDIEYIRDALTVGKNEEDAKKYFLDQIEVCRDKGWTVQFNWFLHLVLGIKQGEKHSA

Row | pIC50 [1] | pIC50 [2] | pIC50 [3] | pIC50 [4] | pIC50 [5] | pIC50 [6] | solubility [7] [µg/mL] | pIC50 [8] | pIC50 [9] | Structure (SMILES)
1 | 6.33 | 6.68 | 6.11 | 6.64 | 6.29 | 6.63 | > 473 |  |  | CCOc1ccc(-c2ccc3ncc4c(c3c2)n(-c2c(C)nn(CCOC)c2C)c(=O)n4C)cn1 [Example 3.11, 8-(6-Ethoxy-pyridin-3-yl)-1-[1-(2-methoxy-ethyl)-3,5-dimethyl-1H-pyrazol-4-yl]-3-methyl-1,3-dihydro-imidazo[4,5-c]quinolin-2-one]
2 |  | 6.32 |  | 6.33 |  |  |  | 6.01 |  | Cc1nn(C)cc1-n1c(=O)n(C)c2cnc3ccc(-c4ccc(OCCOCc5ccccc5)nc4)cc3c21 [Example 19, 8-[6-(2-Benzyloxy-ethoxy)-pyridin-3-yl]-1-(1,3-dimethyl-1H-pyrazol-4-yl)-3-methyl-1,3-dihydro-imidazo[4,5-c]quinolin-2-one]
3 | 6.55 | 7.30 | 7.18 | 7.21 | 7.68 | 7.48 |  | 6.67 | 6.81 | CCn1nccc1-n1c(=O)n(C)c2cnc3ccc(-c4ccc(OC)c(OC)c4)cc3c21 [Example 1.2, 8-(3,4-Dimethoxy-phenyl)-1-(2-ethyl-2H-pyrazol-3-yl)-3-methyl-1,3-dihydro-imidazo[4,5-c]quinolin-2-one]
4 | 6.86 | 7.34 | 6.65 | 7.24 | 6.29 | 6.73 | > 487 |  |  | CCOc1cc(-c2ccc3ncc4c(c3c2)n(-c2c(C)nn(CCOC)c2C)c(=O)n4C)cnc1C [Example 85.2, 8-(5-Ethoxy-6-methyl-pyridin-3-yl)-1-[1-(2-methoxy-ethyl)-3,5-dimethyl-1H-pyrazol-4-yl]-3-methyl-1,3-dihydro-imidazo[4,5-c]quinolin-2-one]
5 | 7.64 | 8.30 |  | 7.82 |  |  |  | 6.86 | > 8.52 | COc1ccc(-c2ccc3ncc4c(c3c2)n(-c2cn(CC(=O)O)nc2C)c(=O)n4C)cn1 [Example 101, {4-[8-(6-Methoxy-pyridin-3-yl)-3-methyl-2-oxo-2,3-dihydro-imidazo[4,5-c]quinolin-1-yl]-3-methyl-pyrazol-1-yl}-acetic acid]
6 |  |  |  |  |  |  |  | 6.55 |  | Cc1nn(C)cc1-n1c(=O)n(C)c2cnc3ccc(-c4cncc(N)c4)cc3c21 [Example 45]
7 |  | 7.11 | 6.33 | 6.40 | 6.86 | 6.92 |  | 6.25 |  | CCOc1ccc(-c2ccc3ncc4c(c3c2)n(-c2cc(C(F)(F)F)nn2C)c(=O)n4C)cn1 [Example 3.2, 8-(6-Ethoxy-pyridin-3-yl)-3-methyl-1-(2-methyl-5-trifluoromethyl-2H-pyrazol-3-yl)-1,3-dihydro-imidazo[4,5-c]quinolin-2-one]
8 | 6.46 | 7.00 |  | 6.36 |  |  | > 399 |  | 6.33 | Cc1nn(C)cc1-n1c(=O)n(C)c2cnc3ccc(-c4cncc(CN)c4)cc3c21 [Example 230, 8-(5-Aminomethyl-pyridin-3-yl)-1-(1,3-dimethyl-1H-pyrazol-4-yl)-3-methyl-1,3-dihydro-imidazo[4,5-c]quinolin-2-one]
9 | 6.49 | 7.15 | 6.25 | 7.15 | 6.31 | 6.91 | 479 (≈ 986 µM) |  |  | COCCn1nc(C)c(-n2c(=O)n(C)c3cnc4ccc(-c5cncc(NC(C)C)c5)cc4c32)c1C [Example 177.2, 8-(5-Isopropylamino-pyridin-3-yl)-1-[1-(2-methoxy-ethyl)-3,5-dimethyl-1H-pyrazol-4-yl]-3-methyl-1,3-dihydro-imidazo[4,5-c]quinolin-2-one]
10 | 6.89 | 7.41 |  | 7.80 |  |  | 237 (≈ 518 µM) |  | 7.60 | CCn1cc(-n2c(=O)n(C)c3cnc4ccc(-c5cnc(COC)c(NC)c5)cc4c32)c(C)n1 [Example 160.2, 1-(1-Ethyl-3-Methyl-1H-pyrazol-4-yl)-8-(6-methoxymethyl-5-methylamino-pyridin-3-yl)-3-methyl-1,3-dihydro-imidazol[4,5-c]quinolin-2-one]
11 | 7.08 | 7.43 |  | 7.70 |  |  |  | 6.93 | 7.28 | COc1ncc(-c2ccc3ncc4c(c3c2)n(-c2cn(C)nc2C)c(=O)n4C)cc1C(=O)O [Example 124, 5-[1-(1,3-Dimethyl-1H-pyrazol-4-yl)-3-methyl-2-oxo-2,3-dihydro-1H-imidazo[4,5-c]quinolin-8-yl]-2-methoxy-nicotinic acid]
12 | 7.00 | 7.36 |  | 7.22 |  |  | 83 (≈ 174 µM) |  | 7.25 | Cc1nn(C)cc1-n1c(=O)n(C)c2cnc3ccc(-c4cncc(CNS(C)(=O)=O)c4)cc3c21 [Example 232]
